Columns and labels:
menses induction = test: Cynomolgus monkey menses induction assay; assay type: in vivo; settings: 5 mg/kg po
Experimental: C. Cynomolgus Monkey […] Induction 1. Experimental Design The effects of administered compound(s) in either a single dose or a dose-response paradigm versus an appropriate control (vehicle alone) are determined. When a compound is tested at a single dose, a group of four animals will be used for the dose. In the dose response study, each experiment will involve up to 5 groups of animals (a control group and 4 groups of animals treated with varying doses of the compound). Experimental groups will contain 3-4 animals/group, since this sample size is commonly used in the literature and has been found appropriate based on our own experience. The animals are treated with test compounds once or twice daily for 4 days in the mid-luteal phase of the menstrual cycle to assess the efficacy of the compounds on the reproductive parameters menstruation. 2. Procedures Initially, animals are characterized in terms of their reproductive cyclicity by observing time of menstruation. Only those animals with two consecutive normal cycles are used to evaluate test compounds. […] will be determined by daily gross examination for vaginal bleeding. In each experiment, animals will be treated once or twice daily IV, IM, SC or PO with the test compound. Appropriate vehicles will be determined for each route of administration and will be specified through protocol amendments. […]

[1] = Cynomolgus monkey intravenous pharmacokinetics; settings: in vivo, cynomolgus monkeys, 0.25 mg/kg i.v.
Excerpt: Therefore from the preceding data it is clear that the R6=fluorine group present in 5-(7-fluoro-3,3-dimethyl-2-oxo-2,3-dihydro-1H-indol-5-yl)-1-methyl-1H-pyrrole-2-carbonitrile dramatically improves the pharmacokinetic performance of the molecule. This improved pharmacokinetic performance translates in the cynomolgus menses induction assay to a dramatic improvement in activity.

[2] = system: rat uterine decidualization; test: Rat decidualization assay; assay type: in vivo; settings: po, read-out: ED50 in the rat decidual assay
Experimental: B. Progestational and Antiprogestational Activity in Mature Ovariectomized Rats (Rat Decidualization Assay)
This assay is used to evaluate the effect of progestins and antiprogestins on rat uterine decidualization and compare the relative potencies of various test compounds.
Test compounds are dissolved in 100% ethanol and mixed with corn oil (vehicle). Stock solutions of the test compounds in oil (Mazola™) are then prepared by heating (˜80° C.) the mixture to evaporate ethanol. Test compounds are subsequently diluted with 100% corn oil or 10% ethanol in corn oil prior to the treatment of animals. No difference in decidual response is found when these two vehicles are compared. […]
Approximately 24 hr after the third injection, decidualization is induced in one of the uterine horns of anesthetized rats by scratching the antimesometrial luminal epithelium with a blunt 21 G needle. […] Approximately 24 hr following the final treatment, rats are sacrificed by […] and bodyweight measured. […]
In agonist mode, the increase in weight of the decidualized uterine horn is calculated by D-horn/C-horn and logarithmic transformation is used to maximize normality and homogeneity of variance. […] EC50 is calculated from the transformed value. […] IC50 is calculated from the retransformed value. […]

Cn1c(C#N)ccc1-c1ccc2c(c1)C(C)(C)C(=O)N2 [5-(3,3-Dimethyl-2-oxo-2,3-dihydro-1H-indol-5-yl)-1-methyl-1H-pyrrole-2-carbonitrile, reference compound]
induction of early onset of menses (menses induction): not active
AUC(0-inf) ([1]; read-out: exposure (AUC0-∞)): 343 ng·h/mL
half-life ([1]; read-out: mean half life (t1/2) (converted)): 2.1 h
ED50 [2]: 0.2 mg/kg
